Test results published in patent EP4810054A1, “NECROPTOSIS CONTROL AGENT” (The University of Tokyo, priority 2023, dated 2025).

Columns and labels:
MSP-1 neurons [1] = assay: P-MLKL immunostaining (necroptosis) of MSP-1 neurons treated with culture supernatant of TNF-α-treated astrocytes; format: cell-based, mouse
Method: (§1) To obtain differentiated astrocytes, the above MSP-1 cells were harvested and cultured overnight in the MSP-1 proliferation medium on new dishes. The next day, for differentiation into astrocytes, the cells were cultured in serum-free DMEM/F12 medium containing N-2 supplement (R&D Systems), leukemia inhibitory factor (LIF, 10 ng/ml, Fujifilm Wako Pure Chemical Industries), and ciliary neurotrophic factor (CNTF, 10 ng/ml, Fujifilm Wako Pure Chemical Industries). For differentiation into neurons, the cells were cultured in serum-free DMEM/F12 medium containing only N-2 supplement. These media are referred to as MSP-1 differentiation media. Each medium was replaced with fresh medium every 2 days. For differentiation into astrocytes, in particular, on […], the cells were exposed to tumor necrosis factor-α (TNF-α, 100 ng/ml, Fujifilm Wako Pure Chemical Industries) for 24 hours. In the anserine treatment group, the cells were pretreated with L-anserine nitrate (Fujifilm Wako Pure Chemical Industries) for 2 hours prior to the exposure to TNF-α.
The harvested MSP-1 cells were cultured in the MSP-1 differentiation medium on poly-L-lysine/fibronectin-coated chamber glass (4-well, Watson) and differentiated into astrocytes. After the TNF-α treatment, the cells were fixed with 4% PFA for 10 minutes and washed with TBS for 10 minutes. Subsequently, the cells were blocked with 5% BSA diluted in 0.05% TBS-X at room temperature for 60 minutes, then incubated overnight at 4°C in a blocking solution containing primary antibodies. The primary antibodies used in this study were anti-GFAP (mouse, 1:1000, Sigma), anti-NeuN (mouse, 1:1000, Millipore), anti-NF-κB p65 (rabbit, 1:500, CST), and anti-P-MLKL (rabbit, 1:2000, Abcam). The cells were then washed three times with TBS for 5 minutes each, and incubated with secondary antibodies at room temperature for 2 hours. The secondary antibodies used in this study were anti-mouse IgG donkey Alexa 488 (1:1000, Molecular Probes) and anti-rabbit IgG donkey Alexa 568 (1:1000, Molecular Probes). After washing with TBS for 5 minutes, the sections were incubated with DAPI (1:10,000, Sigma) in TBS for 5 minutes, and then washed with TBS 2 times for 5 minutes each. The cells were visualized using a confocal microscope (FV3000-L4EN-TN21, Olympus).
To obtain differentiated astrocytes, the MSP-1 cells were harvested and cultured overnight in the MSP-1 proliferation medium on new dishes. The next day, the medium was replaced with serum-free DMEM/F12 medium containing N-2 supplement (R&D Systems), leukemia inhibitory factor (LIF, 10 ng/ml, Wako), and ciliary neurotrophic factor (CNTF, 10 ng/ml, Wako). This medium was referred to as astrocyte differentiation medium. The culture medium was replaced with fresh medium every 2 or 3 days. […]

[2] = system: MSP-1 cells differentiated into astrocytes; assay: RNA sequencing (DEG, GO/KEGG, GSEA) of TNF-α-treated MSP-1 astrocytes; format: cell-based, mouse
Method: as §1
The MSP-1 cells differentiated into astrocytes were harvested by trypsin treatment, and total RNA was isolated using the RNeasy Mini Kit (Qiagen). Samples (10 ng input) were pretreated using the SMART-seq Stranded Kit (Takara, Japan). Sequencing was performed using Illumina NovaSeq 6000 (Illumina, USA).
Gene expression levels were assessed by using transcripts per million (TPM) data, and differentially expressed genes (DEGs) were identified using the DESeq2 package in the R environment. Genes with p-values less than 0.05 were considered DEGs. […] Gene set enrichment analysis (GSEA) was performed based on the TPM data.
On day 5, TNF-α (100 ng/ml) was added to the MSP-1 cells differentiated into astrocytes, and the cells were treated for 24 hours. In the TNF-α + anserine group, 10 µM anserine was added to the culture medium 2 hours prior to the TNF-α treatment. These cells were harvested, and RNA sequencing (RNA-seq) analysis was performed to examine the expressed genes. […] Necroptosis-promoting factors such as C3, Ccl2, Ccl7, and Cxcl1 increased after the TNF-α treatment and decreased in the TNF-α + anserine group.
(§2) To obtain differentiated astrocytes, the MSP-1 cells were harvested and cultured overnight in the MSP-1 proliferation medium on new dishes. The next day, the medium was replaced with serum-free DMEM/F12 medium containing N-2 supplement (R&D Systems), leukemia inhibitory factor (LIF, 10 ng/ml, Wako), and ciliary neurotrophic factor (CNTF, 10 ng/ml, Wako). This medium was referred to as astrocyte differentiation medium. The culture medium was replaced with fresh medium every 2 or 3 days. On day 5, the cells were exposed to tumor necrosis factor-α (TNF-α, 100 ng/ml, Wako) for 24 hours. For anserine treatment group, the cells were pretreated with L-anserine (Toronto Research Chemicals) for 2 hours prior to the exposure to TNF-α. To obtain differentiated neurons, the culture medium for MSP-1 cells was replaced with the serum-free DMEM/F12 medium containing N-2 supplement. This medium was referred to as neuron differentiation medium. The culture medium was replaced with fresh medium every 2 days. On day 5, the cells were treated for 24 hours with the culture supernatant of the astrocytes induced from MSP-1 cells. Nec-1 and the C3aR antagonist (SB290157) were purchased from Selleck.
Total RNA was isolated from isolated astrocytes and astrocytes differentiated from MSP-1 cells using RNeasy Mini Kit (Qiagen). RNA samples in an amount of 1 ng (isolated astrocytes) or 10 ng (cultured astrocytes) were pretreated using the SMART-seq Stranded Kit (Takara Bio, Japan). Sequencing was performed using Illumina NovaSeq 6000 (Illumina, USA). Gene expression levels were evaluated using transcripts per million (TPM) data, and differentially expressed genes (DEGs) were identified using the DESeq2 package in the R environment. […]

[3] = system: C3, Ccl2, Cxcl1, and iNOS; assay: Real-time PCR of inflammatory factor genes in TNF-α-treated MSP-1 astrocytes; format: cell-based, mouse
Method: as §2, with “On day 5, the cells were treated for 24 hours with the culture supernatant of the astrocytes induced from MSP-1 cells. Nec-1 and the C3aR antagonist (SB290157) were purchased from Selleck.” left out
Reverse transcription reactions for cDNA synthesis were performed on the isolated RNA samples (500 ng) using SuperScript™ III Reverse Transcriptase (Thermo Fisher) according to the manufacturer's instructions. […] Analysis was performed by the 2-ΔΔ-Ct method, and the results are expressed as fold changes. […]

phospho-NF-κB = assay: Immunostaining of phospho-NF-κB (P-P65) in TNF-α-treated MSP-1 astrocytes; format: cell-based, mouse
Method: The harvested MSP-1 cells were cultured in the MSP-1 differentiation medium on poly-L-lysine/fibronectin-coated chamber glass (4-well, Watson) and differentiated into astrocytes. After the TNF-α treatment, the cells were fixed with 4% PFA for 10 minutes and washed with TBS for 10 minutes. Subsequently, the cells were blocked with 5% BSA diluted in 0.05% TBS-X at room temperature for 60 minutes, then incubated overnight at 4°C in a blocking solution containing primary antibodies. The primary antibodies used in this study were anti-GFAP (mouse, 1:1000, Sigma), anti-NeuN (mouse, 1:1000, Millipore), anti-NF-κB p65 (rabbit, 1:500, CST), and anti-P-MLKL (rabbit, 1:2000, Abcam). […]
(§3) The cells were cultured on poly-L-lysine/fibronectin-coated chamber glass (4-well or 8-well, Watson) containing the respective MSP-1 differentiation media to induce differentiation into astrocytes or neurons. […] The images were analyzed and quantified using ImageJ.
(§4) Microscopic images were analyzed using the ImageJ software. For AT8, P-RIPK1, and P-MLKL staining, staining intensity was calculated. […] For P-P65 staining, only the staining intensity in the nucleus was calculated, and the data are presented as relative intensity ± S.E.M. for each group. At least 100 cells for each group were analyzed from at least 10 random images.

MSP-1 neurons [4] = assay: AT8 (tau phosphorylation) immunostaining of MSP-1 neurons treated with astrocyte culture medium; format: cell-based, mouse
Method: (§5) To obtain differentiated astrocytes, the MSP-1 cells were harvested and cultured overnight in the MSP-1 proliferation medium on new dishes. The next day, the medium was replaced with serum-free DMEM/F12 medium containing N-2 supplement (R&D Systems), leukemia inhibitory factor (LIF, 10 ng/ml, Wako), and ciliary neurotrophic factor (CNTF, 10 ng/ml, Wako). This medium was referred to as astrocyte differentiation medium. The culture medium was replaced with fresh medium every 2 or 3 days. On day 5, the cells were exposed to tumor necrosis factor-α (TNF-α, 100 ng/ml, Wako) for 24 hours. For anserine treatment group, the cells were pretreated with L-anserine (Toronto Research Chemicals) for 2 hours prior to the exposure to TNF-α. […]
as §3, §4

MSP-1 neurons [5] = assay: P-RIPK1 immunostaining of MSP-1 neurons treated with astrocyte culture medium; format: cell-based, mouse; conditions: MSP-1 neurons treated with anserine CM
Method: as §5, §3, §4

[6] = system: phosphorylated IKK complex; assay: Phosphorylated IKK immunostaining in TNF-α-treated MSP-1 astrocytes; format: cell-based, mouse; conditions: MSP-1 astrocytes treated with TNF-α, addition of anserine; Fig. 6
Method: as §2, with “Nec-1 and the C3aR antagonist (SB290157) were purchased from Selleck.” left out
as §3

[7] = Stability of anserine (temperature, storage in solution); format: physicochemical
[8] = system: male albino rats with experimentally induced sepsis; conditions: carnosine 25 mg/kg and 50 mg/kg for 30 days; cited from earlier work
[9] = 10 µM anserine 2 hours prior to TNF-α 100 ng/ml, 24 hours, versus TNF-α group
[10] = 10 µM anserine added 2 hours prior to TNF-α (100 ng/ml, 24 hours), RNA-seq
[11] = Example 2, MSP-1 astrocytes pretreated with anserine before TNF-α, Fig. 5A

N=C(N)NCCCC(NC(=O)COCC(c1ccccc1)c1ccccc1)C(=O)O (centres unmarked) [C3aR antagonist, reference compound]
p-MLKL intensity (MSP-1 neurons [1]; MSP-1 neurons treated with TNF CM plus C3aRA (10 µM), Fig. 4): decreased significantly

CN1C(=O)C(Cc2c[nH]c3ccccc23)NC1=S (centres unmarked) [Nec-1, necrostatin-1, reference compound]
p-MLKL intensity (MSP-1 neurons [1]; MSP-1 neurons treated with TNF CM plus Nec 1 (30 µM), Fig. 4): decreased significantly to the same level

Cn1cncc1C[C@H](NC(=O)CCN)C(=O)O [anserine, (2S)-2-[(3-amino-1-oxopropyl)amino]-3-(3-methyl-4-imidazolyl)propanoic acid]
Mfge8 (milk fat globule-EGF factor 8) expression (RNA-seq) [2, 9]: increased | Necroptosis-promoting factors such as C3, Ccl2, Ccl7, and Cxcl1 (expression, RNA-seq) [2, 9]: decreased | DEGs down-regulated, TNF-α + anserine vs TNF-α treatment group [2, 10]: 169 | DEGs up-regulated, TNF-α + anserine vs TNF-α treatment group [2, 10]: 159 | differentially expressed genes (DEGs) in the TNF-α + anserine treatment group in comparison with the TNF-α treatment group [2, 10]: 328 | complement activation [2, 11]: reduced | expression of gene groups involved in necroptosis induction (chemokine signaling pathway, response to cytokine, immune response, TNF signaling-related genes), GO and KEGG analyses ([2]; TNF-α + anserine group): significant decrease in expression | expressions of inflammation-related genes, chemokine pathway, and complement activation pathway (GSEA) ([2]; TNF-α + anserine group versus TNF-α group): decreased | expressions of inflammatory factors such as C3 [3, 11]: decreased | expressions of C3, Ccl2, Cxcl1, and iNOS (real-time PCR) ([3]; anserine treatment group versus TNF-α treatment group, Fig. 2D): significantly decreased | NF-κB activity (phospho-NF-κB; [11]): reduced | expression of phospho-NF-κB (phospho-NF-κB; anserine treatment, TNF-α-induced MSP-1 astrocytes, Figs. 2B and 2C): reduced | intensity of P-MLKL (MSP-1 neurons [1]; MSP-1 neurons treated with anserine CM, Fig. 4): significant decrease | necroptosis of MSP-1 neurons (expression of P-MLKL in necrosomes) (MSP-1 neurons [1]; culture supernatant containing 10 mM anserine in addition to TNF-α, compared with sham group, Fig. 3): suppressed to a degree comparable to that observed with untreated culture supernatant (sham group) | intensity of AT8 (MSP-1 neurons [4]; MSP-1 neurons treated with anserine CM): significant decrease | tau-phosphorylation (p-tau expression, AT-8 staining) (MSP-1 neurons [4]; MSP-1 neurons treated with culture medium from TNF-α + anserine group (anserine CM), Fig. 4): did not exhibit such p-tau expression | intensity of P-RIPK1 (MSP-1 neurons [5]): significant decrease | expression of the phosphorylated IKK complex [6]: reduced | stable storage in solution (duration) ([7]; in solution): at least two years and nine months | stability at room temperature and under conditions of 180°C or lower ([7]; room temperature, 180°C or lower): sufficiently stable

NCCC(=O)N[C@@H](Cc1cnc[nH]1)C(=O)O [carnosine]
IL-β, TNF-α, and MIF [8]: reduced | expression of IκBα [8]: increased | increased expression of p65 and p-IKKα/β (Ser 180/Ser 181) [8]: suppressed | lipid peroxidation and other antioxidant enzymes [8]: significantly normalized
